In the assay the target is Nonstructural protein 3 (Zika virus, UniProt A0A024AXB9). Briefly: Functional biochemical assay to identify treatments for viral infectious disease that targets Zika NS2B-NS3 protease. Utilizing a direct enzyme activity measurement method, reading the fluorescence intensity is used to characterize the relative potency of inhibitors as IC50. More on the design: species or system PRVABC59.
Sequence of Nonstructural protein 3 (A0A024AXB9 whole entry): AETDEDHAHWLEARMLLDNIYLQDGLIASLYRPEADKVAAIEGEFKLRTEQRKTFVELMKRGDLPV

What is called IC50 is the concentration needed to halve the response being measured. The low end stands for inhibition by little substance, the high end for a need for much substance. In the case of `CC(C)c1cc(-c2ccc3[nH]c(C(=O)O)cc3c2)cc(S(N)(=O)=O)c1`, the IC50 is > 99.5 µM.

As for `O=C1CCc2c(cc(Cl)cc2-c2ccc3[nH]c(C(=O)O)cc3c2)N1`, the IC50 is > 99.5 µM.

`Clc1ccc2[nH]cc(Cc3ccc4c(c3)CNC4)c2c1`: the IC50 is > 99.5 µM.

As for `O=C(O)c1cc2cc(-c3cc(Cl)cc4c3CCNC4=O)ccc2[nH]1`, the IC50 is > 99.5 µM.

With `Cc1[nH]c2ccc(Cl)cc2c1Cc1ccc(-c2nnn[nH]2)cc1`, the IC50 is > 99.5 µM.

In the case of `O=C(O)c1cc(Cc2c[nH]c3ccc(Cl)cc23)cc(C2CC2)n1`, the IC50 is > 99.5 µM.

`Cn1ncc2c(C(=O)Nc3ccc4c(c3)CNC4)cc(Br)cc21`: half-maximal inhibition (IC50) was put at 0.274 µM.

On to `CNC(=O)[C@H](Nc1cc(CNC(=O)OC(C)(C)C)cc(C(=O)O)c1)c1cc(Cl)cc(C2CC2)c1`, for which the IC50 was > 99.5 µM.

Consider `O=C(O)[C@H]1C[C@H](n2ccc(Cc3c[nH]c4ccc(Cl)cc34)n2)C1`, for which the IC50 was > 99.5 µM.

`O=C(Nc1cccc([C@@H]2C[C@H]2C(=O)O)c1)c1cc(Cl)cc2[nH]ncc12`: the IC50 was > 99.5 µM.

Compound `C=CC[C@H](Nc1cccc(C2(C(=O)O)CCC2)c1)c1cc(Cl)cc(NC(=O)OCc2ccccc2)c1` registered an IC50 of 33.8 µM. That is a double-digit micromolar value.

With `c1ccc2c(Cc3ccc(-c4nnn[nH]4)cc3)c[nH]c2c1`, the IC50 was > 99.5 µM.

For `N#Cc1cc(-c2ccc3[nH]c(C(=O)O)cc3c2)cc(N2CCCC2)c1`, the IC50 was > 99.5 µM.

Consider `CNc1c(-c2cc(Cl)cc(C3CC3)c2)nc2cc(C(=O)O)ccn12`, for which the IC50 is > 99.5 µM.

As to `CNc1c(-c2cc(Cl)cc(C3CC3)c2)nc2cccc(C(=O)O)n12`, the IC50 was > 99.5 µM.

Consider `O=C(O)c1ccc(Cc2c[nH]c3ccc(Cl)cc23)cc1`, for which the IC50 is > 99.5 µM.

With `N#C[C@]1(Nc2cccc(-c3nn[nH]n3)c2)C(=O)Nc2ccc(Cl)cc21`, the IC50 is > 99.5 µM.

Compound `O=Cc1ccc(N2CCC(C(=O)Nc3cccc(Br)n3)CC2)cc1` returned an IC50 of 24.7 µM.

In the case of `O=Cc1ccc(N2CCC(C(=O)NCCc3ccc(O)c(O)c3)CC2)cc1`, the IC50 came to 55.9 µM.

`C=CC[C@H](Nc1cncc(Cl)c1)c1cccc(-c2nn[nH]n2)c1`: the IC50 was > 99.5 µM.

In the case of `C=CC[C@H](Nc1cccc(Cl)c1)c1cccc(-c2nn[nH]n2)c1`, the IC50 was > 99.5 µM.

For the compound `NCCCOc1cc(-c2ccc(N)nc2)cc2c1COB2O`, the IC50 was > 99.5 µM.

For the compound `O=C(O)CCCn1cnc(-c2cc(Cl)cc(NC(=O)OCc3ccccc3)c2)n1`, the IC50 was > 99.5 µM.

In the case of `N#C[C@H](Nc1cncc(-c2nn[nH]n2)c1)c1cc(Cl)cc(NC(=O)OCc2ccccc2)c1`, the IC50 worked out at 51.9 µM.

On to `N#C[C@H](c1cc(Cl)cc(C2CC2)c1)N1c2cnccc2C[C@H]1C(=O)O`, for which the IC50 was > 99.5 µM.

On to `NCc1cc(CCc2cc(Cl)cc(NC(=O)OCc3ccccc3)c2)cc(C(=O)O)c1`, for which the IC50 was > 99.5 µM.

For `N#C[C@H](Nc1cccc(-c2nn[nH]n2)c1)c1cc(Cl)cc2[nH]ncc12`, the IC50 was > 99.5 µM.

Regarding `Clc1cc([C@@H]2C[C@H]2c2cccc(-c3nn[nH]n3)c2)c2cn[nH]c2c1`, the IC50 is > 99.5 µM.

Take `O=C(Nc1cc(Cl)cc([C@H]2[C@H](CO)[C@@H]2c2cccc(-c3nn[nH]n3)c2)c1)OCc1ccccc1`: the half-inhibitory concentration (IC50) came to 84.1 µM.

`O=C(O)c1cc2cc(-c3nccc(C(F)F)n3)ccc2[nH]1`: the IC50 is > 99.5 µM.

As for `N#C[C@H](Nc1ccc2c(c1)CNC2)c1cc(Cl)cc2[nH]ncc12`, the IC50 is 0.116 µM.

Turning to `NCc1cc(Cl)cc(-c2ccc3[nH]c(C(=O)O)cc3c2)c1`, the IC50 is > 99.5 µM.

As for `NC[C@@H]1CN(c2cc(-c3ccc(N)nc3)cc3c2COB3O)C(=O)O1`, the IC50 was > 99.5 µM.

In the case of `O=C(Nc1cc(Cl)cc([C@H](Nc2cccc(-c3nn[nH]n3)c2)C(=O)NC[C@H]2CCCO2)c1)OCc1ccccc1`, the IC50 is > 99.5 µM.

Compound `O=C(Nc1cc(Cl)cc([C@H]2C[C@@H]2c2cccc(-c3nnn[nH]3)c2)c1)OCc1ccccc1` showed an IC50 of 27.6 µM.

On to `N#C[C@H](Nc1ccc(CCC(=O)O)cn1)c1cc(Cl)cc(C2CC2)c1`, for which the IC50 is > 99.5 µM.

In the case of `O=Cc1ccc(N2CCC(C(=O)NCc3cccc(-c4ccccc4)c3)CC2)cc1`, the IC50 is > 99.9 µM.

For `N#C[C@H](Nc1cccn(CC(=O)O)c1=O)c1cc(Cl)cc(C2CC2)c1`, the IC50 is > 99.5 µM.

In the case of `CNc1ncc(C(F)(F)F)cc1-c1ccc2[nH]c(C(=O)O)cc2c1`, the IC50 is > 99.5 µM.

For the compound `O=C(Nc1cc(Cl)cc(C(=O)N2CCC(C(=O)O)CC2)c1)OCc1ccccc1`, the IC50 is > 99.5 µM.

`O=C(Nc1cc(Cl)cc([C@H](Nc2cccc(-c3nn[nH]n3)c2)C(=O)NC2CCOCC2)c1)OCc1ccccc1`: the IC50 is > 99.5 µM.

`O=C(O)c1cccc(CCc2cc(Cl)cc3[nH]ncc23)c1`: the IC50 is > 99.5 µM.

With `O=Cc1ccc(N2CCC(C(=O)NCCN3CCc4ccccc43)CC2)cc1`, the IC50 came out at 25 µM. This counts as double-digit micromolar.

`O=C(Nc1cc(Cl)cc(CNc2cccc(-c3nn[nH]n3)c2)c1)OCc1ccccc1` came in with an IC50 of 27.3 µM.

In the case of `O=C(Nc1cc(Cl)cc(-c2ccc3cc(C(=O)O)[nH]c3c2)c1)OCc1ccccc1`, half-maximal inhibition (IC50) was put at 11.8 µM.

Take `O=C(Nc1cc(Cl)cc(-c2cn(C3CCCC3)nc2C(=O)O)c1)OCc1ccccc1`: half-maximal inhibition (IC50) was put at 95.2 µM.

In turn, `NCc1cc(NC(=O)c2cc(Cl)cc(NC(=O)OCc3ccccc3)c2)cc([C@@H]2C[C@H]2C(=O)O)c1` showed an IC50 of 5.66 µM.

In turn, `CNC(=O)[C@H](Nc1cc(CN)cc(C(=O)O)c1)c1cc(Cl)cc(C2CC2)c1` came in with an IC50 of 0.795 µM. This IC50 lies about 7.1-fold lower than the previous one.

As to `N#Cc1cc(CN)cc([C@H]2C[C@@H]2c2cc(Cl)cc(NC(=O)OCc3ccccc3)c2)c1`, the 50% inhibitory concentration (IC50) is > 99.5 µM.

Regarding `NCc1cc(CC(=O)O)cc(NC(=O)c2cc(Cl)cc(NC(=O)OCc3ccccc3)c2)c1`, the IC50 came to 7.96 µM.

Turning to `O=C(Nc1cc(Cl)cc(C(=O)N2CCC[C@H]2C(=O)O)c1)OCc1ccccc1`, the IC50 is > 99.5 µM.

On to `NCCCOc1cc2c(c(-c3ccc(N)nc3)c1)CCB(O)O2`, for which the IC50 is > 99.5 µM.

Consider `CC(C)[C@H](N)P(=O)(Oc1ccc(F)cc1)Oc1ccc(F)cc1`, for which the IC50 was > 99.5 µM.

In the case of `O=C(Nc1cc(Cl)cc(C(=O)NC2(c3nnn[nH]3)CC2)c1)OCc1ccccc1`, the IC50 was > 99.5 µM.

`C[C@@]1(c2cccc(CN)c2)C[C@H]1c1cc(Cl)cc(NC(=O)OCc2ccccc2)c1` yielded an IC50 of 5.57 µM.

Compound `COc1cc(-c2cc(Cl)cc(NC(=O)OCc3ccccc3)c2)c(OC)cc1CC(=O)O` had an IC50 of 94.2 µM. Against the preceding compound, the IC50 is about 17-fold higher.

On to `O=C(Nc1cc(Cl)cc([C@H]2Nc3ccc(-c4nn[nH]n4)cc3[C@H]3OCCC[C@@H]23)c1)OCc1ccccc1`, for which the IC50 is > 99.5 µM.

For the compound `Cc1c(C(=O)Nc2cccc(-c3nnn[nH]3)c2)cnn1-c1ccc(Cl)cc1`, the IC50 was > 99.5 µM.

In the case of `OCC#C[C@H](Nc1ccc2c(c1)CNC2)c1cc(Cl)cc2[nH]ncc12`, half-maximal inhibition (IC50) required 1.1 µM. In other words, the single-digit micromolar range.

For `CNC(=O)[C@H](Nc1cc(Cl)cc(C2CC2)c1)c1ccc(-c2nn[nH]n2)cc1`, the IC50 was > 99.5 µM.

Take `NCc1cccc([C@H](C#CCO)Nc2cc(Cl)cc(NC(=O)OCc3ccccc3)c2)c1`: inhibition was half-maximal at 15.6 µM (IC50). In other words, the double-digit micromolar range.

Take `O=C(Nc1cc(Cl)cc(-c2cnn3ccc(C(=O)O)cc23)c1)OCc1ccccc1`: the IC50 is > 99.5 µM.

For the compound `Clc1cccc([C@H](C#Cc2ccccc2)Nc2cccc(-c3nn[nH]n3)c2)c1`, the IC50 was found to be 16.8 µM.

As to `CNC(=O)[C@H](Nc1cccc(C2(C(=O)O)CCC2)c1)c1cc(Cl)cc(C2CC2)c1`, the IC50 is > 99.5 µM.

Consider `Cc1ccc2cccc(NC(=O)C3CCN(c4ccc(C=O)cc4)CC3)c2n1`, for which the IC50 was determined as 30.3 µM. In other words, the double-digit micromolar range.

`CNC(=O)c1cc(CN)cc([C@@H]2C[C@H]2c2cc(Cl)cc(NC(=O)OCc3ccccc3)c2)c1` gave an IC50 of 8.64 µM. This IC50 lies about 3.5-fold lower than the previous one.

Regarding `N#Cc1cc(Cl)cc(-c2ccc3[nH]c(C(=O)O)cc3c2)c1`, the IC50 was > 99.5 µM.

Turning to `O=C(O)C[C@H]1CCCN1C(=O)c1cc(Cl)cc(NC(=O)OCc2ccccc2)c1`, the IC50 was > 99.5 µM.

In turn, `C[C@@]1(c2cc(Cl)cc(NC(=O)OCc3ccccc3)c2)C[C@H]1c1cccc(CN)c1` showed an IC50 of 19.5 µM.

As for `O=C(O)c1cc2cc(-c3cc(Cl)cc(C4CC4)c3)ccc2[nH]1`, the IC50 was 32.9 µM.

As for `CNC(=O)[C@H](Nc1cncc(C(=O)O)c1)c1cc(Cl)cc(C2CC2)c1`, the IC50 is > 99.5 µM.

On to `O=C(Nc1cc(Cl)cc(-c2cccc3c(C(=O)O)cccc23)c1)OCc1ccccc1`, for which the IC50 was found to be 23.1 µM.

As for `NCc1cc(Br)cc([C@H]2C[C@@H]2c2cc(Cl)cc(NC(=O)OCc3ccccc3)c2)c1`, the IC50 was determined as 11.6 µM.

Turning to `C[C@H](C(=O)O)N(C)C(=O)c1cc(Cl)cc(NC(=O)OCc2ccccc2)c1`, the IC50 is > 99.5 µM.

Turning to `C[C@](O)(Cc1cc(Cl)cc(NC(=O)OCc2ccccc2)c1)c1cccc(CN)c1`, the IC50 was > 99.5 µM.

As for `CN(C)CCNC(=O)[C@H](Nc1cccc(-c2nn[nH]n2)c1)c1cc(Cl)cc(NC(=O)OCc2ccccc2)c1`, the IC50 was > 99.5 µM.

`O=Cc1ccc(N2CCC(C(=O)Nc3ncc(Br)cc3O)CC2)cc1` came in with an IC50 of 54 µM.

For the compound `NC(=O)C1(N2CCCCC2)CCN(C(=O)C2CCN(c3ccc(C=O)cc3)CC2)CC1`, the IC50 amounted to 57.5 µM.

Consider `CCc1cc(Br)cc2c(Cc3ccc(-c4nnn[nH]4)cc3)c[nH]c12`, for which 26.4 µM corresponded to half-maximal inhibition (IC50). Against the preceding compound, the IC50 is about 2.2-fold lower.

Turning to `CN(C)C(=O)Nc1cccc([C@@H]2C[C@H]2c2cc(Cl)cc(NC(=O)OCc3ccccc3)c2)c1`, the IC50 is > 99.5 µM.

Compound `CNC(=O)[C@H](Nc1cc(CN)cc(C(=O)O)c1)c1cc(Cl)cc(NC(=O)OCc2ccccc2)c1` registered an IC50 of 1.16 µM.

In the case of `CC(C)[C@H](NC(=O)[C@@H]1CCCN1C(=O)OCc1ccccc1)P(=O)(Oc1ccc(F)cc1)Oc1ccc(F)cc1`, the half-maximal inhibitory concentration (IC50) was > 99.5 µM.

Turning to `CC(C)[C@H](CC(=O)O)NC(=O)c1cc(Cl)cc(NC(=O)OCc2ccccc2)c1`, the IC50 is > 99.5 µM.

On to `N#C[C@H](Nc1ccc(CC(=O)O)cn1)c1cc(Cl)cc(C2CC2)c1`, for which the IC50 was > 99.5 µM.

The compound `CNC(=O)[C@H](Nc1cc(CN)cc(-c2nn[nH]n2)c1)c1cc(Cl)cc(C2CC2)c1` gave an IC50 of 0.589 µM.

`O=C(Nc1cc(Cl)cc(C(=O)Nc2ccnc(C(=O)O)c2)c1)OCc1ccccc1`: the IC50 was > 99.5 µM.

In the case of `O=C(Nc1cc(Cl)cc(C(=O)N2CC[C@H](C(=O)O)C2)c1)OCc1ccccc1`, the IC50 was > 99.5 µM.

Values taken from ChEMBL document CHEMBL5604062, “ASAP - ZIKV NS2B-NS3 protease fluorescence dose response” (2024).
